This is an account of results in patent publication US20200171051A1, “METHODS FOR TREATING RENAL INJURY BY […] UPREGULATING P21” (RENIBUS THERAPEUTICS, INC., priority 2018, published 2020).

The conditions of data set [1]: relative to cortisol = 1; cited from earlier work.
Data set [2] deals with renal cortical p21. The data set can be described thus: Glycerol AKI model: renal cortical p21 mRNA (RT-PCR, factored by GAPDH) and p21 protein (ELISA). The data set is classed as in vivo, male CD-1 mice. As for the experimental part:
(§1) The present inventors conducted studies to better understand the factors that drive renal p21 expression during AKI. All experiments were performed using male CD-1 mice (35-40 grams, Charles River Laboratories, Wilmington, Del.) maintained under routine vivarium conditions with free food and water access. The AKI models were approved by the institution's Animal Care and Utilization Committee). All surgical procedures were conducted under deep pentobarbital anesthesia (40-50 mg/Kg IP).
Mice were briefly anesthetized with isoflurane, and then subjected to intramuscular glycerol injection (administered in equally divided doses into each hind limb). The glycerol dose ware varied (6, 6.5, 7, 7.5, 8, 8.5, 9 ml/Kg; n˜2-3 per dose) in order to produce variable degrees of renal injury. At 4 hrs post glycerol injection, a tail vein tail vein blood sample (˜25 μl) was obtained, and at 18 hrs, the mice were deeply anesthetized with pentobarbital. The abdominal cavity was opened through a midline abdominal incision, a terminal vena cava blood sample was obtained, the kidneys were removed, iced, and renal cortical samples were cut and extracted for both protein and total RNA (RNeasy Mini+; Qiagen; Germantown, Md.). A terminal urine sample was collected from the urinary bladder. Plasma samples were assayed for blood urea nitrogen (BUN) and creatinine (Cr). Johnson A C, Zager R A. Plasma and urinary p21: potential biomarkers of AKI and renal aging. Am J Physiol 2018; Aug. 1. doi: 10.1152/ajprenal.00328.2018. [Epub ahead of print]. Renal cortical, plasma, and urinary p21 concentrations were determined with a ‘sandwich’ ELISA which employs two distinct monoclonal antibodies (capture; detection) directed against two different p21 epitopes, conferring p21 specificity; (#2120721; Abcam, Cambridge, Mass.). Renal cortical p21 mRNA levels were determined by RT-PCR, factored by GAPDH. Ten normal mice provided control plasma, urine, and tissue values for comparisons.
To assess renal cortical changes at an earlier time point than that noted above (18 hrs post glycerol injection), an additional 5 mice were subjected to glycerol injection (8.5 ml/Kg) and 4 hrs later, renal cortical protein/RNA samples were obtained for use in the above noted assays. The results were contrasted to those observed in 5 normal mice.
Pifithrin-α is a stable, water soluble, p53 inhibitor which blocks activation of p53 responsive genes. Dagher P C, Mai E M, Hato T, Lee S Y, Anderson M D Karozos S C Mang H E, Knipe N L, Plotkin Z, Sutton T A: The p53 inhibitor pifithrin can stimulate fibrosis in a rat model of ischemic acute kidney injury. Am J Physiol Renal Physiol 302: F284-F291, 2012; Komarov P G, Komarova E A, Kondratov R V, Christov-Tselkov K, Coon J S, Chernov M V et al. A chemical inhibitor of p53 that protects mice from the side effects of cancer therapy. Science 285: 1733-1737, 1999. As such, it has been used to differentiate p53-dependent vs. p53-independent pathways. To further explore the potential role of p53 on p21 gene activation, 3 mice were injected IP with 10 mg/Kg pifithrin-α (10% DMSO in saline; EMD Millipore #506154; Burlington, Mass.). Three additional mice received vehicle injection. Immediately thereafter the mice were injected with […] glycerol. Four hrs post glycerol injection, renal cortical tissues were analyzed for p21 and p53 mRNAs.
Inflammation can induce p21 gene activation via the inflammatory cascade (1, 2). Basile J R, Eichten A, Zacny V, Münger K. NF-kappaB-mediated induction of p21(Cip1/Waf1) by tumor necrosis factor alpha induces growth arrest and cytoprotection in normal human keratinocytes. Mol Cancer Res. 2003; 4: 262-270; Bellido T, O'Brien C A, Roberson P K, Manolagas S C: Transcriptional Activation of the p21WAF1,CIP1,SDI1 Gene by Interleukin-6 Type Cytokines. J Biol Chem 1998; 273:21137-21144. […]
Background: ELISA stands for enzyme-linked immunosorbent assay.

The conditions of data set [3]: in vivo; cited from earlier work.
The subject of data set [4] is renal cortical p21. The data set is described as follows: Normal mice (no renal injury): renal cortical p21 protein and mRNA. The data set is classed as in vivo, male CD-1 mice. On the procedure: The present inventors conducted studies to better understand the factors that drive renal p21 expression during AKI. All experiments were performed using male CD-1 mice (35-40 grams, Charles River Laboratories, Wilmington, Del.) maintained under routine vivarium conditions with free food and water access. The AKI models were approved by the institution's Animal Care and Utilization Committee). All surgical procedures were conducted under deep pentobarbital anesthesia (40-50 mg/Kg IP). Mice were briefly anesthetized with isoflurane, and then subjected to intramuscular glycerol injection (administered in equally divided doses into each hind limb). […] At 4 hrs post glycerol injection, a tail vein tail vein blood sample (˜25 μl) was obtained, and at 18 hrs, the mice were deeply anesthetized with pentobarbital. The abdominal cavity was opened through a midline abdominal incision, a terminal vena cava blood sample was obtained, the kidneys were removed, iced, and renal cortical samples were cut and extracted for both protein and total RNA (RNeasy Mini+; Qiagen; Germantown, Md.). A terminal urine sample was collected from the urinary bladder. Plasma samples were assayed for blood urea nitrogen (BUN) and creatinine (Cr). Johnson A C, Zager R A. Plasma and urinary p21: potential biomarkers of AKI and renal aging. Am J Physiol 2018; […] [Epub ahead of print]. Renal cortical, plasma, and urinary p21 concentrations were determined with a ‘sandwich’ ELISA which employs two distinct monoclonal antibodies (capture; detection) directed against two different p21 epitopes, conferring p21 specificity; (#2120721; Abcam, Cambridge, Mass.). Renal cortical p21 mRNA levels were determined by RT-PCR, factored by GAPDH. Ten normal mice provided control plasma, urine, and tissue values for comparisons. To determine the impact of DXM on renal p21 expression in the absence of renal injury, 5 mice were injected with DXM as above, and 4 hrs later p21 protein/mRNA levels were measured and compared to normal values. Given an unexpected finding that corticosteroid injection increased, rather than suppressed, p21 expression, and given that endogenous cortisol levels were markedly elevated post-glycerol injection, we questioned whether glucocorticoid receptor (GCR) blockade would decrease p21 expression. […] Four hrs later, the kidneys were removed and renal cortices were analyzed for p21 mRNA and protein levels. Four mice, treated with mifepristone in the absence of glycerol injection, served to evaluate its effects in the absence of glycerol injection.

The test system of data set [5] is renal cortical p53 mRNA. The data set is described as follows: Glycerol AKI model: renal cortical p53 mRNA. The data set is classed as in vivo, male CD-1 mice. The conditions noted are these: 4 hr post glycerol + pifithrin-α 10 mg/Kg IP; mean ± SEM; glycerol alone 0.75±0.02; NS. On the procedure: as §1
Mice were briefly anesthetized with isoflurane, and then subjected to intramuscular glycerol injection (administered in equally divided doses into each hind limb). The glycerol dose ware varied (6, 6.5, 7, 7.5, 8, 8.5, 9 ml/Kg; n˜2-3 per dose) in order to produce variable degrees of renal injury. […] Renal cortical, plasma, and urinary p21 concentrations were determined with a ‘sandwich’ ELISA which employs two distinct monoclonal antibodies (capture; detection) directed against two different p21 epitopes, conferring p21 specificity; (#2120721; Abcam, Cambridge, Mass.). Renal cortical p21 mRNA levels were determined by RT-PCR, factored by GAPDH. […]
Pifithrin-α is a stable, water soluble, p53 inhibitor which blocks activation of p53 responsive genes. […] Four hrs post glycerol injection, renal cortical tissues were analyzed for p21 and p53 mRNAs. […]

The mark [6] stands for this setting: normal mice, within 4 hrs of DXM injection (250 μg IP).
Setting [7] is: 4 hr post glycerol kidneys, DXM 250 μg IP 30 min before glycerol 8.5 ml/Kg.
The mark [8] stands for this setting: control mice, 4 hrs post MFP 30 mg/Kg, in words.
The mark [9] stands for this setting: glycerol treated mice, 4 hrs, MFP 30 mg/Kg, in words.

For the compound `C[C@]12CCC(=O)C=C1CC[C@@H]1[C@@H]2[C@@H](O)C[C@@]2(C)[C@H]1CC[C@]2(O)C(=O)CO` [Cortisol], in data set [1], the Glucocorticoid potency is 1. The “effect on 4 hr post glycerol p21 mRNA levels” value in data set [2] (cortisol 1 mg/Kg IP 30 min before glycerol 8.5 ml/Kg, in words) is given as “to the same degree as did DXM injection”. Moreover, the “Terminal half-life” value in data set [3] is 8 h.

Consider `C[C@]12CCC(=O)C=C1CC[C@@H]1[C@@H]2C(=O)C[C@@]2(C)[C@H]1CC[C@]2(O)C(=O)CO` [Cortisone], for which, in data set [1], the Glucocorticoid potency is recorded as 0.8.

Regarding `C[C@@H]1C[C@H]2[C@@H]3CCC4=CC(=O)C=C[C@]4(C)[C@@]3(F)[C@@H](O)C[C@]2(C)[C@@]1(O)C(=O)CO` [Dexamethasone], in data set [4] (setting [6]), the “increase in renal cortical p21 mRNA” value turned out to be 15 × and the “increase in renal cortical p21 protein” value is 10 ×. Besides, in data set [2] (setting [7]), the “increase in p21 mRNA” value is about 3 fold and the “increase in p21 protein” value is given as about 3 fold.

With `C[C@H]1C[C@@H]2[C@H]([C@@H](O)C[C@@]3(C)[C@H]2CC[C@]3(O)C(=O)CO)[C@@]2(C)C=CC(=O)C=C12` [Methylprednisolone], in data set [3], the “Terminal half-life” value is 18 to 40 h.

`CC#C[C@]1(O)CC[C@H]2[C@@H]3CCC4=CC(=O)CCC4=C3[C@@H](c3ccc(N(C)C)cc3)C[C@@]21C` [Mifepristone]: in data set [4] (setting [8]), the “effect on p21 mRNA values” is given as “no significant decrease” and the “effect on p21 protein values” was “no significant decrease”. For the same compound, in data set [2] (setting [9]), the “effect on p21 protein levels” value was “normalized” and the “effect on post glycerol p21 mRNA levels” value is reported as “modest reduction”.

`C[C@]12C=CC(=O)C=C1CC[C@@H]1[C@@H]2[C@@H](O)C[C@@]2(C)[C@H]1CC[C@]2(O)C(=O)CO` [Prednisolone]: in data set [1], the Glucocorticoid potency is recorded as 4. The “Terminal half-life” value in data set [3] was 16 to 36 h.

Turning to `C[C@]12C=CC(=O)C=C1CC[C@@H]1[C@@H]2C(=O)C[C@@]2(C)[C@H]1CC[C@]2(O)C(=O)CO` [Prednisone], the “Terminal half-life” value in data set [3] was 16 to 36 h.

Take `C[C@]12C=CC(=O)C=C1CC[C@H]1[C@@H]3C[C@@H](O)[C@](O)(C(=O)CO)[C@@]3(C)C[C@H](O)[C@@]12F` [Triamcinolone]: the Glucocorticoid potency in data set [1] is given as 5. In data set [3], the “Terminal half-life” value is 12 to 36 h.

`Cc1ccc(C(=O)Cn2c3c(sc2=N)CCCC3)cc1` [pifithrin-α, Pifithrin-α]: the “renal cortical p53 mRNA” value in data set [5] worked out at 0.7±0.03. Besides, the “renal cortical p21 mRNA” value in data set [2] (4 hr post glycerol + pifithrin-α 10 mg/Kg IP, mean ± SEM, controls 0.34±0.1, glycerol alone 1.43±0.11) was 1.71±0.08.
